Test results as given in ChEMBL document CHEMBL1201862, “PubChem BioAssay data set” (2004).
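Where inhibition never reached the appropriate level, the endpoint shown equals the highest concentration tested. Otherwise, values were interpolated linearly from a five-concentration, 48-hour dose response in 96-well plates. GI50: concentration for 50% inhibition of growth.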 Active and inactive are the calls of the source. No stated cut-off is given here; in the data, active = GI50 up to about 1.1 µM and inactive = higher.

Assays:
Experiment in all cases: growth of human tumour cells (NCI), 48 h
U-251 = system: U-251
HT-29 = system: HT-29
OVCAR-8 = system: OVCAR-8
SF-268 = system: SF-268
UACC-257 = system: UACC-257
SF-295 = system: SF-295
T47D = system: T47D
NCI-H23 = system: NCI-H23
786-0 = system: 786-0
SK-OV-3 = system: SK-OV-3
EKVX = system: EKVX
Malme-3M = system: Malme-3M
NCI-H460 = system: NCI-H460
K562 = system: K562
RXF 393 = system: RXF 393
LOX IMVI = system: LOX IMVI
NCI-H522 = system: NCI-H522
SN12C = system: SN12C
SF-539 = system: SF-539
Hs-578T = system: Hs-578T

## COc1cc(OC)c(OC)cc1/C=C/c1cc[n+](C)c2ccccc12
U-251
  GI50: 5.02 µM (inactive)
HT-29
  GI50: 30.5 µM (inactive)
OVCAR-8
  GI50: 9.93 µM (inactive)
SF-268
  GI50: 51.2 µM (inactive)
UACC-257
  GI50: 16.1 µM (inactive)
SF-295
  GI50: 15.3 µM (inactive)
T47D
  GI50: 33.4 µM (inactive)
NCI-H23
  GI50: 12.1 µM (inactive)
786-0
  GI50: 25.2 µM (inactive)
SK-OV-3
  GI50: 52.2 µM (inactive)
EKVX
  GI50: 50.2 µM (inactive)
Malme-3M
  GI50: > 100 µM (inactive)
NCI-H460
  GI50: 33.2 µM (inactive)
K562
  GI50: 3.07 µM (inactive)
RXF 393
  GI50: 53.1 µM (inactive)

## Cc1ccc(C)c(NC2=NC(=O)C(CC(=O)Nc3ccc(Cl)cc3Cl)S2)c1 (stereo not given)
U-251
  GI50: 36.1 µM (inactive)
LOX IMVI
  GI50: > 100 µM (inactive)
NCI-H522
  GI50: 24 µM (inactive)
HT-29
  GI50: > 100 µM (inactive)
OVCAR-8
  GI50: 66.1 µM (inactive)
SF-268
  GI50: 37.8 µM (inactive)
UACC-257
  GI50: > 100 µM (inactive)
SN12C
  GI50: > 100 µM (inactive)
SF-295
  GI50: > 100 µM (inactive)
NCI-H23
  GI50: 43.8 µM (inactive)
786-0
  GI50: 51.8 µM (inactive)
SK-OV-3
  GI50: > 100 µM (inactive)
EKVX
  GI50: > 100 µM (inactive)
Malme-3M
  GI50: 70.5 µM (inactive)
NCI-H460
  GI50: > 100 µM (inactive)
SF-539
  GI50: 41.4 µM (inactive)
K562
  GI50: 80.2 µM (inactive)
RXF 393
  GI50: 31.2 µM (inactive)

## COc1cc2c(c(OC)c1OC)-c1ccc(SC)c(=O)cc1C(CC(=O)Oc1cccc([N+](=O)[O-])c1)C2 (stereo not given)
U-251
  GI50: 0.794 µM (active)
LOX IMVI
  GI50: 0.867 µM (active)
NCI-H522
  GI50: 0.493 µM (active)
HT-29
  GI50: 0.362 µM (active)
OVCAR-8
  GI50: 0.767 µM (active)
SF-268
  GI50: 1.02 µM (active)
UACC-257
  GI50: 2.89 µM (inactive)
SN12C
  GI50: 1.11 µM (active)
SF-295
  GI50: 0.342 µM (active)
NCI-H23
  GI50: 0.78 µM (active)
786-0
  GI50: 0.473 µM (active)
SK-OV-3
  GI50: 0.0736 µM (active)
EKVX
  GI50: 3.38 µM (inactive)
Malme-3M
  GI50: 0.36 µM (active)
NCI-H460
  GI50: 0.45 µM (active)
SF-539
  GI50: 0.263 µM (active)
K562
  GI50: 0.344 µM (active)
RXF 393
  GI50: 0.139 µM (active)

## O=C1N[C@H]2c3c(Cl)sc(Cl)c3/C(=N/O)[C@H]2O1
U-251
  GI50: > 100 µM (inactive)
HT-29
  GI50: > 100 µM (inactive)
OVCAR-8
  GI50: > 100 µM (inactive)
SF-268
  GI50: > 100 µM (inactive)
UACC-257
  GI50: > 100 µM (inactive)
SN12C
  GI50: > 100 µM (inactive)
T47D
  GI50: > 100 µM (inactive)
786-0
  GI50: > 100 µM (inactive)
SK-OV-3
  GI50: > 100 µM (inactive)
EKVX
  GI50: > 100 µM (inactive)
Malme-3M
  GI50: > 100 µM (inactive)
NCI-H460
  GI50: 76.4 µM (inactive)
SF-539
  GI50: 88.1 µM (inactive)
K562
  GI50: 75.3 µM (inactive)
RXF 393
  GI50: > 100 µM (inactive)

## COc1ccc(C2c3cc4c(cc3OC(N3CCOCC3)C2C)OCO4)c(OC)c1OC (stereo not given)
LOX IMVI
  GI50: 14.5 µM (inactive)
NCI-H522
  GI50: 6.89 µM (inactive)
HT-29
  GI50: 14 µM (inactive)
Hs-578T
  GI50: 2.88 µM (inactive)
OVCAR-8
  GI50: 24.7 µM (inactive)
SF-268
  GI50: 17.4 µM (inactive)
UACC-257
  GI50: 15.9 µM (inactive)
SN12C
  GI50: 26.3 µM (inactive)
SF-295
  GI50: 5.97 µM (inactive)
T47D
  GI50: 20.6 µM (inactive)
NCI-H23
  GI50: 33.7 µM (inactive)
786-0
  GI50: 17.1 µM (inactive)
EKVX
  GI50: 24.2 µM (inactive)
NCI-H460
  GI50: 20.5 µM (inactive)
SF-539
  GI50: 12.6 µM (inactive)
K562
  GI50: 4.34 µM (inactive)

## O=NNc1cnc(O)nc1O
U-251
  GI50: > 100 µM (inactive)
LOX IMVI
  GI50: > 100 µM (inactive)
NCI-H522
  GI50: > 100 µM (inactive)
OVCAR-8
  GI50: > 100 µM (inactive)
UACC-257
  GI50: > 100 µM (inactive)
SN12C
  GI50: > 100 µM (inactive)
SF-295
  GI50: > 100 µM (inactive)
T47D
  GI50: > 100 µM (inactive)
NCI-H23
  GI50: > 100 µM (inactive)
786-0
  GI50: > 100 µM (inactive)
SK-OV-3
  GI50: > 100 µM (inactive)
EKVX
  GI50: > 100 µM (inactive)
Malme-3M
  GI50: > 100 µM (inactive)
SF-539
  GI50: > 100 µM (inactive)
K562
  GI50: > 100 µM (inactive)
RXF 393
  GI50: > 100 µM (inactive)

## Cc1nc(Nc2ccc(Cl)c(Cl)c2)sc1C(=O)/C=C/c1ccc2c(c1)OCO2
U-251
  GI50: 22 µM (inactive)
LOX IMVI
  GI50: 19.4 µM (inactive)
HT-29
  GI50: 36.8 µM (inactive)
OVCAR-8
  GI50: 23.2 µM (inactive)
SF-268
  GI50: 24.3 µM (inactive)
UACC-257
  GI50: 31.6 µM (inactive)
SF-295
  GI50: 20 µM (inactive)
T47D
  GI50: 42.5 µM (inactive)
NCI-H23
  GI50: 20 µM (inactive)
786-0
  GI50: 20.2 µM (inactive)
SK-OV-3
  GI50: 18.7 µM (inactive)
EKVX
  GI50: 34.5 µM (inactive)
Malme-3M
  GI50: 31.9 µM (inactive)
NCI-H460
  GI50: 34.5 µM (inactive)
SF-539
  GI50: 23.7 µM (inactive)
K562
  GI50: 31.6 µM (inactive)
RXF 393
  GI50: 15.9 µM (inactive)
